Test results from US20030162803A1, “Anhydrovinblastine for the treatment of cancer” (priority 1997, published 2003).
Counter-ions that a name gives are not always drawn.

How the values were obtained:
[1] = tested on: H460 human non-small cell lung carcinoma tumor xenograph; assay: H460 SC tumor mouse model; assay type: in vivo, SCID/Rag-2 mice
Experimental: Cultures of H460 Human Lung cells are available from the British Columbia Cancer Research Center. Cells were injected subcutaneously twice into mature male Rag-2 mice (24 mice, 1×10^6 cells/mouse) using a 26-gauge needle. The H460 cells were suspended in a Hank's Balanced Salt Solution without calcium. Tumors were allowed to form in the mice for 11 days.
When the tumors were well established, four separate groups of mice, were selected for administration of the three test articles (i.e. one group for each test article of AHVB bisulphate, AHVB ditartrate, and Navelbine™) and one control.
AHVB bisulphate and ditartrate, and Navelbine™ were solubilized using 5% dextrose saturated with Argon. Both of these articles were at a concentration of 20 mg/ml. Any dose dilutions were made with 5% dextrose.
The articles were administered intravenously on the days 1, 5 and 9, as were controls of 5% dextrose. Body weights and tumor measurements with calipers were taken every day for the first 10 days and then every other day for the remainder of the study.
Following administration of the test articles, the animals; weight and tumor size (using calipers) were determined daily for the first 10 days and then every other day for the remainder of the study. If the tumor size reached 1 gram in weight or the tumor started to ulcerate, the animals were sacrificed (by carbon dioxide inhalation) and subjected to necropsy. Animals were also monitored at least daily for signs of stress for the full length of the study. Animals manifesting severe symptoms of stress (rapid weight loss, panting, hunched posture, scruffy coat) were also sacrificed and a necropsy performed.
The results of the efficacy studies are given in FIG. 9 and present averages of data from 6 or fewer animals. […] Each tumor was measured in length and width and the volume of each tumor was calculated by […]. […] The calculation was performed each day the tumors were measured. The standard deviation of the mean and the standard error of the mean were calculated with the error bars appearing in the graph in FIG. 9. […]

[2] = tested on: H460 human non-small cell lung carcinoma, C-4 human cervical carcinoma, K562 human leukaemia, and the A431 human epidermoid cell lines; assay: MTT cytotoxicity assay, 72 hours, panel of human cancer cell lines; assay type: cell-based
C-4 cells = assay: Cytotoxicity assay, C-4 (FIG. 8); assay type: cell-based, human; details: 3 day incubation
Experimental: The IC50s for the SK0V3 and C-4 cells were 4.0 μM and 0.02 μM respectively. Both cell lines were obtained from the ATCC and grown using standard growth techniques and medium as described above. The IC50s were determined through standard cytoxicity assays described above, with each well containing approximately 10^4 cells.

nerves = details: vs vinblastine, vindesine; cited from earlier work
[3] = IV 10 mg/kg and 20 mg/kg on days 1, 5 and 9

Row | Compound | toxicity compared with Navelbine [1, 3] | tumor growth inhibition compared with Navelbine [1, 3] | activity compared with vincristine and vinorelbine ([1]; human tumor xenografts of NSCLC, equitoxic doses) | IC50 ([2]; drug exposure time 72 hours, range over H460, C-4, K562, A431) [nM] | fold less active than Navelbine in vitro ([2]; same cell lines) | IC50 (C-4 cells) [nM] | uptake into nerves, times faster than the other drugs (nerves) [times]
1 | CCC1=C[C@H]2CN(CCc3c([nH]c4ccccc34)[C@@](C(=O)OC)(c3cc4c(cc3OC)N(C)[C@H]3[C@@](O)(C(=O)OC)[C@H](OC(C)=O)[C@]5(CC)C=CCN6CC[C@]43[C@@H]65)C2)C1 [AHVB, 3′,4′-anhydrovinblastine] | less toxic than Navelbine™ | greater tumor growth inhibition | superior activity to that of both vincristine and vinorelbine | 20 to 24 | approximately 10 fold | 20 | 
2 | CC[C@]1(O)C[C@H]2CN(CCc3c([nH]c4ccccc34)[C@@](C(=O)OC)(c3cc4c(cc3OC)N(C=O)[C@H]3[C@@](O)(C(=O)OC)[C@H](OC(C)=O)[C@]5(CC)C=CCN6CC[C@]43[C@@H]65)C2)C1 [Vincristine, Sulfate of 22-oxovincaleukoblastine] |  |  |  |  |  |  | 4
